Here are results for eleven substances from patent publication US10300144B2, “N-terminal polysialylation” (Lipoxen Technologies Limited, priority 2006, dated 2019).

One data set has as its system blood glucose. The data set can be described thus: In vivo efficacy of insulin formulations (blood glucose after subcutaneous injection). Set-up: species or system mice. The following applies: for T-Test probability level of the difference against the Tris buffer, in vivo efficiency: mice. The protocol: The in vivo efficacy of insulin formulations was studied in female mice CD-1, 7-8 weeks old, 0.3 IU of protein dose (same activity) was injected in mice subcutaneously. Animals were divided into seven groups of four. insulin formulations were given to each animal of each group in the following manner; insulin (0.3 IU/mouse), Lantus (Aventis) insulin-PSA conjugate (14 KDa), PBS, one drop of blood was taken from each animal and was measured blood glucose by ACCU-CHEK Active (Roche Diagnostics).

Data set [1] in a line: Isoelectric focusing (IEF) gel. Format: physicochemical. The following applies: IEF gel pH 3-10. The protocol:
Novex® IEF gel was used to determine differences in insulin and CAO-insulin conjugate isoelectric points. Samples was dissolved to a concentration of 0.5 mg/ml. 5 ul sample was diluted with 5 ul Novex IEF Sample Buffer pH 3-10 and then loaded the protein sample on the gel.

In a further data set the test system is liver enzymes. The following applies: cited from earlier work.
For data set [2] the following is noted: cyanuric chloride activated PEG (2000 Da) conjugates; cited from earlier work.
The test system of the next data set is blood sugar levels. The note with it: rabbits, calculated on a molar basis; cited from earlier work.
Data set [3] can be described thus: Colominic acid (CAO) stability at different pH. Type of data set: physicochemical. The protocol:
Colominic acid samples (CA and CAO) were dissolved in NaNO3 (0.2M), CH3CN (10%; 5 mg/ml) and were chromatographed on over 2× GMPWXL columns with detection by refractive index (GPC system: VE1121 GPC solvent pump, VE3580 RI detector and collation with Trisec 3 software (Viscotek Europe Ltd). Samples (5 mg/ml) were filtered over 0.45 μm nylon membrane and run at […] with 0.2M NaNO3 and CH3CN (10%) as the mobile phase.
The rules for chemistry of the PEGylation cannot be applied to polysialylation as such because of the difference in the physiochemical properties of these molecules. PSA is an acid labile polymer and is stable for weeks around neutral pH (FIG. 3). […] Polysialic acid is highly hydrophilic whereas PEG is an ampiphilic molecule in nature. When the polysialylation is carried out using conditions used for PEGylation, aggregation and precipitation of the proteins is seen in many cases.

As for “13 kDa CAO-insulin: N-terminal conjugate of insulin with 13 kDa oxidised colominic acid (polysialic acid)”, the “T-Test probability level of the difference against the Tris buffer, in vivo efficiency” value with blood glucose (time 32.0 minutes) is reported as “** (** P < 0.01)”; with blood glucose (time 64.5 minutes), “*** (*** P < 0.001)”; in the data set with blood glucose (time 99.4 minutes), “*** (*** P < 0.001)”. In data set [1], the “isoelectric point (pI)” value is “no fixed isoelectric point”.
As for “15 KDa CAO-insulin (Sigma): conjugate of insulin with 15 kDa oxidised colominic acid”, in the data set on blood glucose (conjugation pH 6.0 versus 7.4), the “pH effect (of polysialylation) on in vivo efficiency” value is “pH 6.0 is better than 7.4”. In addition, the “probability level of the difference against the PBS buffer” value in the data set on blood glucose (time 30 (unit not given)) is “** (**P < 0.01)”; in the data set on blood glucose (time 60 (unit not given)), “*** (***P < 0.001)”; in the data set with blood glucose (time 90 (unit not given)) it was “*** (***P < 0.001)”; in the data set with blood glucose (time 120 (unit not given)), “** (**P < 0.01)”; in the data set with blood glucose (time 150 (unit not given)) it was “* (*P < 0.05)”.
Turning to “21 kDa CAO-insulin: conjugate of insulin with 21 kDa oxidised colominic acid”, the “T-Test probability level of the difference against the Tris buffer, in vivo efficiency” value in the data set on blood glucose (time 64.5 minutes) was “*** (*** P < 0.001)”; with blood glucose (time 99.4 minutes) it was “*** (*** P < 0.001)”; with blood glucose (time 230.2 minutes), “* (* P < 0.05)”.
For the substance “21.5 kd CAO-insulin: conjugate of insulin with 21.5 kDa oxidised colominic acid (FIG. 9)”, in the data set on blood glucose (among conjugates of FIG. 9 (10, 15, 21.5 kDa), PBS control), the “effect on decreasing blood glucose in mice” value is given as “most significant effect on the decreasing blood glucose in mice”.
As for “27 kDa CAO-insulin: conjugate of insulin with 27 kDa oxidised colominic acid”, the “T-Test probability level of the difference against the Tris buffer, in vivo efficiency” value is recorded as “** (** P < 0.01)” in the data set on blood glucose (time 32.0 minutes); “*** (*** P < 0.001)” in the data set with blood glucose (time 64.5 minutes); “** (** P < 0.01)” with blood glucose (time 99.4 minutes); “** (** P < 0.01)” in the data set on blood glucose (time 230.2 minutes); “** (** P < 0.01)” in the data set with blood glucose (time 1354.9 minutes). Moreover, the “isoelectric point (pI)” value in data set [1] is “no fixed isoelectric point”.
For the substance “32 kDa CAO-insulin: conjugate of insulin with 32 kDa oxidised colominic acid”, the “T-Test probability level of the difference against the Tris buffer, in vivo efficiency” value is listed as “*** (*** P < 0.001)” in the data set with blood glucose (time 32.0 minutes), “*** (*** P < 0.001)” in the data set with blood glucose (time 64.5 minutes), “*** (*** P < 0.001)” in the data set with blood glucose (time 99.4 minutes) and “* (* P < 0.05)” in the data set with blood glucose (time 1354.9 minutes).
For “PEG(1500)-B1-insulin: Geiger et al./Ehrat et al. PEG-insulin adduct modified at residue PheB1”, the “stability to liver enzymes versus native insulin” value in the data set on liver enzymes was “far more stable”.
As to “PEG-insulin conjugates: Davis et al. conjugates of insulin with cyanuric chloride activated PEG (2000 Da)”, the “activity (partially active)” value in data set [2] is “about 50%”.
Consider insulin [reference compound], for which the “T-Test probability level of the difference against the Tris buffer, in vivo efficiency” value with blood glucose (time 32.0 minutes), with blood glucose (time 64.5 minutes) and with blood glucose (time 99.4 minutes) was “*** (*** P < 0.001)” each time.
“mPEG(1500)-B1-insulin: Obermeier et al. site-specific PEG-insulin conjugate modified at residue PheB1”: the “insulin effect on reduction of blood sugar levels” value with blood sugar levels is recorded as 100%.
oxidised colominic acid [CAO]: the “slow degradation, % of initial MW” value is recorded as 70 % of initial MW in data set [3] (pH 4.0, after 48 hours) and 92 % of initial MW in data set [3] (pH 5.0, after 48 hours). The “stability of CAO” value in data set [3] (pH 6.0) and in data set [3] (pH 7.4) was “stable for 8 days” each time.
